# Test results published in publication PMC8290497, “Taxifolin, an Inhibitor of Sortase A, Interferes With the Adhesion of Methicillin-Resistant Staphylococcal aureus” (Frontiers in Microbiology, 2021).
# Assays:
# [1] = system: S. aureus mature biofilms; assay: Mature biofilm assay (crystal violet); type: cell-based, Staphylococcus aureus; settings: 25–200 μM Tax, 24 h
# Experimental: S. aureus biofilms were formed for 24 h at 37°C on the surfaces of the wells of a 96-well plate. Following biofilm formation, different Tax concentrations (25–200 μM) were added to selected wells and the plates were incubated for 24 h at 37°C. The effects of Tax on the mature biofilms were estimated using the crystal violet stain and recorded by a microplate reader.
# (§1) FIGURE 3 Effect of SrtA inhibitor on virulence-related phenotypes in S. aureus Newman strain. (A) Impact of Tax on the ability of S. aureus to adhere to fibrinogen. (B) Biofilm formation of S. aureus in the presence of different concentrations of Tax. (C) Mature biofilms of S. aureus in the presence of different concentrations of Tax. The ΔsrtA group represented the positive control. (D) Tax affects internalization of S. aureus into A549 cells. A549 cells were infected with S. aureus pretreated with different concentrations of Tax then lysed 2 h post-infection. The number of viable S. aureus in the cells was quantified by serial dilution on TSA agar plates. (E) Effects of Tax on S. aureus protein A (SpA) using FITC-labeled rabbit IgG. Error bars represent means ± SD of three replicates. *P < 0.05, **P < 0.01, ***P < 0.001 calculated with a two-tailed Student’s t-test.
# WT-SrtA = biological target: T1, WT-SrtA (Staphylococcus aureus, UniProt Q2FV99); assay: Fluorescence quenching assay, WT-SrtA; type: binding
# T1 construct: 6xHis; made in house; host or cells: E. coli BL21 (DE3), plasmid pET28a-SrtA
# From the text: Molecular modeling studies highlight the benefits of performing site-directed mutagenesis studies. Therefore, fluorescence quenching experiments were utilized to determine the binding affinity of Tax with SrtA and SrtA mutants (D170A, Q172A).
# S. aureus USA300 = assay: Growth curve and growth rate; type: cell-based, Staphylococcus aureus
# Experimental: A broth microdilution assay was performed to determine the minimum inhibitory concentration (MIC) of Tax for S. aureus USA300, as described elsewhere ([Sader et al., 2013]; [Delgado-Valverde et al., 2017]). A growth curve was further evaluated by adding various concentrations of Tax (0–200 μM) to a bacterial culture, then incubating until an OD600 of 0.3 had been reached. S. aureus USA300 and ΔsrtA were used as controls. The OD600 value was recorded for each sample at 1 h intervals for a total of 24 h. The growth rate between S. aureus treated with Tax and S. aureus USA300 was also calculated at each time point.
# FIGURE 2 Growth curve and cytotoxicity. (A) Growth curves of S. aureus USA300 and the ΔsrtA group with different concentrations of Tax. (B) Growth rate of S. aureus USA300 and S. aureus treated with Tax (25 μM). (C) Percent cell viability of HEK293 (purple) and HepG2 (blue) cells were measured using a CCK-8 assay after incubation with Tax for 24 h.
# [2] = system: internalization of S. aureus into A549 cells; assay: Invasion assay of S. aureus into A549 cells; type: cell-based, Staphylococcus aureus; settings: 200 μM Tax; P < 0.001
# Experimental: A549 human lung carcinoma cells were seeded at a density of 2.5 × 10^5 per well in 24-well plates and placed in an incubator at 37°C in an atmosphere containing 5% CO2 for 20 h. Cultures of S. aureus were mixed with different concentrations of Tax then cultured at 37°C until an OD600 of 1.0 was achieved. The A549 cells were resuspended in medium and aliquots of bacterial suspension were added to each well to a total concentration of 2 × 10^7°CFU/mL. After incubation for 2 h, the invasion assay was terminated by incubation with 300 μg/mL gentamicin for 30 min. The cells were then lysed after washing and coated on a BHI agar plate. After incubation at 37°C for 12 h, the number of CFUs were counted manually.
# as §1, with “A549 cells were infected with S. aureus pretreated with different concentrations of Tax then lysed 2 h post-infection.” left out, “(E) Effects of Tax on S. aureus protein A (SpA) using FITC-labeled rabbit IgG.” left out
# BALB/c mice = settings: mouse, in vivo, ip, 200 mg/kg
# [3] = system: SrtA expression in S. aureus; assay: Western blot analysis of SrtA expression; type: cell-based, Staphylococcus aureus; settings: 25–200 μM Tax, compared with the untreated group
# Experimental: To evaluate the effect of Tax on SrtA expression, Tax (25–200 μM) was added to different bacterial cultures and incubated overnight at 37°C. Equal quantities of total protein from the bacterial lysates were separated by 12% SDS-PAGE then transferred to a polyvinylidene fluoride (PVDF) membrane using a transblot semidry system. Non-specific binding to the PVDF membrane was prevented by incubating in 5% bovine serum albumin (BSA) overnight at 4°C. The membranes were washed three times with PBST, agitating each time for 5 min, then incubated with rabbit polyclonal antibody (created in the laboratory) against SrtA. Following a further washing in PBST three times, the membranes were incubated with HRP-labeled goat anti-rabbit IgG (Bioworld, China) diluted 1:10,000 in antibody diluent (PBST + 1% BSA) at 37°C for 1 h. ΔsrtA or S. aureus USA300 without Tax was considered the control group. The cytoplasmic protein ClpP was analyzed as an internal control. Blots were visualized using an enhanced chemiluminescence (ECL) detection system (GE Healthcare, United Kingdom), while bands were quantified using ImageQuant TL software (GE Healthcare).
# FIGURE 4 Expression of SrtA in the presence of Tax and the interaction of different concentrations of Tax with SrtA. […] Error bars represent means ± SD of three replicates. ***P < 0.001 calculated with a two-tailed Student’s t-test.
smiles,measurement,setting,value
"O=C1c2c(O)cc(O)cc2OC(c2ccc(O)c(O)c2)C1O (stereo not shown) [Tax, taxifolin]",effect on mature biofilms,[1],had no effect
same,Kd,WT-SrtA,15.6 µM
same,toxicity toward S. aureus,S. aureus USA300; 200 μM,did not display toxicity
same,effect on the growth of S. aureus,"S. aureus USA300; at a concentration of IC50 (25 μM), P > 0.05",no significant effect
same,number of bacteria entering A549 cells,[2],reduced significantly
same,"acute toxicity, signs observed",BALB/c mice,"no signs of malaise, or tardy or inanimate behavior"
same,effect on SrtA expression,[3],no apparent effect
